Earlier results as cited in patent US20210361620A1 (Biosential, Inc., priority 2018, published 2021).

Assays:
humans = conditions: for potential side effects of supplementation: tryptophan: dose not given, melatonin: 1 mg to 5 mg, uncommon
[1] = tested on: subjects with mild insomnia or longer-than-average sleep latency; conditions: for effect on sleep (hypnotic effect): ingestion of a sufficient quantity
serum albumin = serum albumin (Homo sapiens, UniProt P02768); conditions: after ingestion and absorption
serum albumin, sequence (P02768 25-609): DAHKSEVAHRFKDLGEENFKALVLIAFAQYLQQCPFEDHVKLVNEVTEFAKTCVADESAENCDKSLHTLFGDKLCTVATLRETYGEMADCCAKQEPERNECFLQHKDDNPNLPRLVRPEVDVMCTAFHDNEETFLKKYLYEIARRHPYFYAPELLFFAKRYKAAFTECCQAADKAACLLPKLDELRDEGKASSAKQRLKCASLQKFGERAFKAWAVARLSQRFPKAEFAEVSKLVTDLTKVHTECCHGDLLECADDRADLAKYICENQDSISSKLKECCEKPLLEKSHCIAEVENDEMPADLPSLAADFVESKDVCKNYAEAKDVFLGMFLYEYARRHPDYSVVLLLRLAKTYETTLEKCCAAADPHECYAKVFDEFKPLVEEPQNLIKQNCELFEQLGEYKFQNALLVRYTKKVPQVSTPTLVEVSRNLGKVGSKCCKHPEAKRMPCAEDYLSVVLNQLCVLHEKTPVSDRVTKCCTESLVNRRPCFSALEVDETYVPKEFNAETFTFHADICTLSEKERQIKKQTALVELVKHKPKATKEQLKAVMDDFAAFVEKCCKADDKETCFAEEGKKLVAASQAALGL

Row | SMILES | effect on glucose metabolism (rats) | side effects of supplementation during the day (humans; daytime use) | potential side effects of supplementation (humans) | effect on sleep (hypnotic effect) [1] | fraction bound to serum albumin in the circulation (serum albumin) | fraction circulating as free tryptophan (serum albumin) | effect on sleep architecture at very high dose ([1]; doses above 12,000 mg)
1 | COc1ccc2[nH]cc(CCNC(C)=O)c2c1 [melatonin] | antihyperglycemic effect | sleepiness and hypothermia | drowsiness, headache, dizziness and nausea | reduce sleep latency, increase sleep duration and efficiency, and regulate the sleep-wake cycle | – | – | –
2 | N[C@@H](Cc1c[nH]c2ccccc12)C(=O)O [tryptophan] | – | – | drowsiness and minimal weight loss | consistently reduces sleep latency | approximately 80% | 20% | disrupt sleep architecture
